According to patent publication US4017487A, “7β-(D-5-amino-5-carboxyvaleramido )-7-methoxy-3-substituted-3-cephem-4-carboxylic acid antibiotics” (priority 1974, dated 1977):
Values joined by “and” are separate entries in the source; they are usually repeats but may differ in a detail not shown here. Equal entries are not always repeated. “Also recorded” adds a separate entry of the source. Where two headings read alike, the source gives them in different places.

Legend:
[1] = test system: gram-negative and gram-positive infections; assay: In vivo protection against infection (general statements); design: species or system mice; details: for in vivo protection / activity: mouse
Source text: (§1) Methods: The method employed in this characterization is as follows: Female white Swiss mice, average weight 20-23 grams, were infected intraperitoneally with 3-20 times the number of organisms calculated to be lethal for 50% of the infected control animals (3-20 LD50 doses). At the time of infection and again six hours later, therapy was given by the designated route. Controls of the virulence of the culture and the toxicity of the antibiotic for uninfected mice were included in the tests. Seven days after infection the test was considered complete and the amount of the antibiotic (I) that would be required to protect 50% of the infected and treated animals was calculated by the method of Knudsen and Curtis; J. Amer. Stat. Assoc. Vol. 42: page 282 (1947).
The method employed in these studies is the same as described above with regard to the in vivo characterization of 810A.

Bacillus sp. = assay: In vitro disc-plate agar diffusion, antibacterial spectrum (7 mm = no zone); type: cell-based; details: 16 h, 166 μg/ml, inoculum 5 ml/150 ml, 25° C., read-out: Inhibition Zone Diameter
cephalosporinases = assay: Resistance to cephalosporinases; type: biochemical
[2] = Isoelectric point and pH stability; type: physicochemical
Escherichia coli strains = assay: microbe, parasite or virus in culture; type: cell-based; details: 16 h, read-out: Inhibition Zone Diameter, 166 μg/ml, Pleocidin-resistant, 37° C.
Vibrio percolans MB-1272 = assay: Disc-plate assay using Vibrio percolans; details: broth
Escherichia coli 236 = assay: Bacterial inactivation; details: four hours; B. subtilis (MB-964); 240 min
[3] = test system: gram-negative and gram-positive bacteria; assay: Antibacterial activity (general statements); type: cell-based
Vibrio percolans = assay: In vitro disc-plate agar diffusion, antibacterial spectrum (7 mm = no zone); type: cell-based; details: Comamonas terrigena, 16 h; 166 μg/ml; inoculum 10 ml/150 ml; 27° C.; read-out: Inhibition Zone Diameter
[4] = test system: degradative bacteria / enzymatic degradation; assay: Resistance to enzymatic degradation / bacterial inactivation (general statements); type: biochemical
Source text: Bacterial Inactivation with 810A: An in vitro study was designed to determine the resistance of Antibiotic 810A, to bacterial inactivation as compared with cephalosporin C, cephaloridine and cephalothin.

Proteus morganii 356 [5] = details: washed bacterial cells, 4 h, pH 7.5
Bacillus subtilis = assay: In vitro disc-plate agar diffusion, antibacterial spectrum (7 mm = no zone); type: cell-based; details: 16 h, read-out: Inhibition Zone Diameter
Salmonella gallinarum = assay: as above; type: cell-based; details: Salmonella enterica, 16 h, 166 μg/ml, inoculum 10 ml/150 ml, 25° C., read-out: Inhibition Zone Diameter
Proteus morganii 356 [6] = assay: In vivo mouse protection test, cephalosporin-resistant clinical isolate; design: species or system white Swiss mice; details: s.c. × 2 doses
Source text: as §1
In addition to the aforementioned in vivo trials of the product, a clinical isolate of Proteus morganii 356 which is resistant to cephalosporins and capable of degrading cephalosporin C, was employed in a mouse protection test performed in the same manner as reported above.

Xanthomonas vesicatoria = assay: In vitro disc-plate agar diffusion, antibacterial spectrum (7 mm = no zone); type: cell-based; details: 16 h, read-out: Inhibition Zone Diameter
Proteus mirabilis 241 = details: washed bacterial cells, 4 h, pH 7.5
[7] = Blood appearance and urinary excretion; details: in vivo
[8] = test system: Alcaligenes viscosus (MB-12); assay: Bacterial inactivation, washed bacterial cells; details: 4 hour incubation; assayed on B. subtilis (MB-964) plates
[9] = test system: Salmonella schottmuelleri; assay: In vivo mouse protection test; design: species or system white Swiss mice; details: s.c. × two doses
Source text: as §1
(§2) The method employed in these studies is the same as described above with regard to the in vivo characterization of 810A. The results of these tests are described below in Table XIb:
(§3) Administration was by subcutaneous injection. At the completion of the test period, usually seven days after administration, the amount of product required to protect 50% of the mice (ED50) from this otherwise fatal injection was calculated: […]

Klebsiella pneumoniae AD = assay: In vivo mouse protection test; design: species or system white Swiss mice; details: s.c. × two doses
Source text: as §1, §2, §3

Pasteurella multocida = assay: In vivo mouse protection test; design: species or system white Swiss mice; details: s.c. × two doses
Source text: as §1, §2, §3

[10] = test system: Diplococcus pneumoniae 2400; assay: In vivo mouse protection test; design: species or system white Swiss mice; details: s.c. × two doses
Source text: as §1, §2, §3

Salmonella typhosa = assay: In vivo mouse protection test; design: species or system white Swiss mice; details: s.c. × two doses
Source text: as §1, §2, §3

Paracolobactrum arizonae = assay: In vivo mouse protection test; design: species or system white Swiss mice; details: s.c. × two doses
Source text: as §1, §2, §3

Proteus vulgaris = assay: In vivo mouse protection test; design: species or system white Swiss mice; details: s.c. × two doses
Source text: as §1, §2, §3

Proteus mirabilis = assay: In vivo mouse protection test; design: species or system white Swiss mice; details: s.c. × two doses
Source text: as §1, §2, §3

Escherichia coli = assay: In vivo mouse protection test; design: species or system white Swiss mice; details: s.c. × two doses
Source text: as §1, §2, §3

Klebsiella pneumoniae B = assay: In vivo mouse protection test; design: species or system white Swiss mice; details: s.c. × two doses
Source text: as §1, §2, §3

Proteus morganii 3202 = assay: In vivo mouse protection test; design: species or system white Swiss mice; details: s.c. × two doses
Source text: as §1, §2, §3

Aerobacter aerogenes = assay: In vivo mouse protection test; design: species or system white Swiss mice; details: s.c. × two doses
Source text: as §1, §2, §3

Proteus morganii 251 = details: washed bacterial cells, 4 h, pH 7.5

## CO[C@@]1(NC(=O)CCC[C@@H](N)C(=O)O)C(=O)N2C(C(=O)O)=C(COC(N)=O)CS[C@@H]21 [Example 842A]
[1]
  in vivo protection / activity: protects against infection with three species of Proteus, two of Salmonella, one strain of Escherichia coli, two of Klebsiella and also against Paracolobactrum arizonae, Aerobacter aerogenes, Pasteurella multocida and Diplococcus pneumoniae 2400
[1]; listed as Antibiotic 842A
  in vivo protection / activity: effectiveness in vivo on Proteus morganii and an effectiveness against the following gram-negative bacteria: Escherichia coli, Proteus vulgaris, Proteus mirabilis, Proteus morganii, Salmonella schottmuelleri, Klebsiella pneumoniae AD, Klebsiella pneumoniae B, and Paracolobactrum arizonae
[1]; oral
  oral protection against infections: protects against infections due to Paracolobactrum arizonae 3720, Proteus vulgaris 1810, and Salmonella schottmuelleri 3010
Bacillus sp.
  zone of inhibition at 166 µg/mL: 8 mm
cephalosporinases
  resistance to cephalosporinases: greater resistance to cephalosporinases
[2]
  apparent isoelectric point: ~3.5 pH
  pH stability: unstable above pH 9.0; also recorded: relatively stable at pH 1.5; also recorded: unstable above pH 7
Escherichia coli strains
  zone of inhibition at 166 µg/mL: 18 mm
Vibrio percolans MB-1272; 1:10 dilution, Example 10
  inhibition zone: 21.5 mm.
Vibrio percolans MB-1272; 4 days, 0.5 inch discs, Example 9
  inhibition zone: 33 mm.
Vibrio percolans MB-1272; four days, 0.5 inch discs, Example 8
  inhibition zone: 31.5 mm.
Escherichia coli 236
  percent inactivation: 38%
[3]
  antibacterial activity: exhibits activity against Salmonella schottmuelleri 3010, S. gallinarum and S. typhosa; also recorded: inhibits the growth of the following gram-negative bacteria: Escherichia coli, Proteus vulgaris, Alcaligenes faecalis, Brucella bronchiseptica, Salmonella gallinarum, Vibrio percolans and Xanthomonas vesicatoria; also recorded: inhibits the growth of the following gram-positive bacteria: Staphylococcus aureus, Sarcina lutea and Bacillus subtilis
[3]; listed as Antibiotic 842A
  antibacterial activity: enhanced activity against gram-negative microorganisms
Vibrio percolans
  zone of inhibition at 166 µg/mL: 56 mm
[4]; compared with cephalosporin C
  resistance to enzymatic degradation: more resistant to enzymatic degradation than cephalosporin C
[4]; compared with other cephalosporins
  resistance to bacterial inactivation: more stable than the latter against certain microorganisms; also recorded: more resistant than cephalosporin C to inactivation by A. faecalis, A. viscosus, Escherichia coli 236, Proteus morganii 251, Proteus morganii 236 and Proteus mirabilis 241
Proteus morganii 356 [5]
  percent inactivation: 69%
Bacillus subtilis
  zone of inhibition at 166 µg/mL: 13 mm
Salmonella gallinarum
  zone of inhibition at 166 µg/mL: 21 mm
Proteus morganii 356 [6]
  ED50 by Subcutaneous Route × 2 Doses (average of Two Trials): 273 µg
Xanthomonas vesicatoria
  zone of inhibition at 166 µg/mL: 19 mm
Proteus mirabilis 241
  percent inactivation: 5%
[7]
  appearance in the blood: appears rapidly in the blood
[8]
  percent inactivation: 54.4%
[9]
  ED50 by Subcutaneous Route × Two Doses: 103 µg
Klebsiella pneumoniae AD
  ED50 by Subcutaneous Route × Two Doses: 125 µg
Pasteurella multocida
  ED50 by Subcutaneous Route × Two Doses: 57 µg
[10]
  ED50 by Subcutaneous Route × Two Doses: 566 µg
Salmonella typhosa
  ED50 by Subcutaneous Route × Two Doses: 33 µg and 34 µg
Paracolobactrum arizonae
  ED50 by Subcutaneous Route × Two Doses: 125 µg
Proteus vulgaris
  ED50 by Subcutaneous Route × Two Doses: 51 µg
Proteus mirabilis
  ED50 by Subcutaneous Route × Two Doses: 276 µg
Escherichia coli
  ED50 by Subcutaneous Route × Two Doses: 200 µg
Klebsiella pneumoniae B
  ED50 by Subcutaneous Route × Two Doses: 125 µg
Proteus morganii 3202
  ED50 by Subcutaneous Route × Two Doses: 276 µg
Aerobacter aerogenes
  ED50 by Subcutaneous Route × Two Doses: 49 µg
Proteus morganii 251
  percent inactivation: 80%
